pIC50: −log10 of the molar value.
Tests used:
human LTA4 hydrolase = biological target: T1, human LTA4 hydrolase (Homo sapiens, UniProt P09960); assay: LTA4H Enzyme assay (peptidase, Arg-AMC cleavage); assay type: biochemical; conditions: LTA4H enzyme 1 nM, Arg-AMC substrate 50 μM, room temperature 1 h, fluorescence 380/460 nm
T1 sequence (P09960 1-611): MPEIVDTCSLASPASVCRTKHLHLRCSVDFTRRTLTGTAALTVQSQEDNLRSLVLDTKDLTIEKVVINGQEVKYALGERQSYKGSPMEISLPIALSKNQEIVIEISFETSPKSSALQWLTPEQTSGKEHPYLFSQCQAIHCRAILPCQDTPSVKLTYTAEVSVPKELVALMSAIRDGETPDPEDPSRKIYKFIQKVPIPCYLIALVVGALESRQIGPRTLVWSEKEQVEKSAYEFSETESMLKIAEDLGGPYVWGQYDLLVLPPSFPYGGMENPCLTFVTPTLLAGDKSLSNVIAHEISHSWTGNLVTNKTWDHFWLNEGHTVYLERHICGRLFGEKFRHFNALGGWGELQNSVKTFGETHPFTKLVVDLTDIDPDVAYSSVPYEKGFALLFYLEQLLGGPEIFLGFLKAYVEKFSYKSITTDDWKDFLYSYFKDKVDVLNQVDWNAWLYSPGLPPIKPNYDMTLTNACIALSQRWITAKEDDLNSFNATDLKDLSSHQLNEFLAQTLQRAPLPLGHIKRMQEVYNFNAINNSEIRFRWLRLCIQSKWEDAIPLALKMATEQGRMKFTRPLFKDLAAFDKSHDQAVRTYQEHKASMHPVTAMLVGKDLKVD
How it was run: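 Human LTA4H (1 nM final) incubated with compound and Arg-AMC (50 μM final) in 50 mM Tris-HCl pH 7.5, 100 mM KCl, 0.5% BSA, 1 h at room temperature. Product read as AMC fluorescence (ex 380/em 460 nm); IC50 reported.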

[1] = tested on: LTB4 synthesis in human whole blood; assay: human whole blood (HWB) assay, inhibition of LTB4 production; assay type: cell-based; conditions: heparinized human whole blood, calcimycin 20 μM stimulation, plasma LTB4
How it was run: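 Heparinized human whole blood preincubated with compound 15 min at 37 °C, then stimulated with 20 μM (final) calcimycin for 30 min at 37 °C. Plasma LTB4 measured by antibody-based HTRF; IC50 reported.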

pIC50 (human LTA4 hydrolase)	pIC50 [1]	Structure (SMILES)
9.68	6.72	CC(=O)N1CCN(Cc2ccc3cc(Oc4ccc(-c5ccn[nH]5)cc4)ccc3n2)CC1 [Example 247, 1-(4-{6-[4-(2H-Pyrazol-3-yl)-phenoxy]-quinolin-2-ylmethyl}-piperazin-1-yl)-ethanone]
9.13	6.82	c1cc(-c2ccc(Oc3ccc4nc(CN5C[C@@H]6C[C@H]5CO6)ccc4c3)nc2)[nH]n1 [Example 178, 2-[(1S,4S)-1-(2-Oxa-5-aza-bicyclo[2.2.1]hept-5-yl)methyl]-6-[5-(2H-pyrazol-3-yl)-pyridin-2-yloxy]-quinoline]
9.85	6.59	OC(C1CCN(Cc2nc3cc(Oc4ccc(-c5ccn[nH]5)cc4)ccc3[nH]2)CC1)C(F)(F)F (stereo not drawn) [Example 71, 2,2,2-Trifluoro-1-(1-{5-[4-(2H-pyrazol-3-yl)-phenoxy]-1H-benzoimidazol-2-ylmethyl}-piperidin-4-yl)-ethanol]
9.47	6.92	c1cc(-c2ccc(Oc3ccc4cc(CN5CCCC5)ccc4c3)nc2)[nH]n1 [Example 3, 5-(2H-Pyrazol-3-yl)-2-(6-pyrrolidin-1-ylmethyl-naphthalen-2-yloxy)-pyridine]
8.70	6.55	c1cc(-c2ccc(Oc3ccc4c(cnn4CCN4CCOCC4)c3)nc2)[nH]n1 [Example 111, 1-(2-Morpholin-4-yl-ethyl)-5-[5-(2H-pyrazol-3-yl)-pyridin-2-yloxy]-1H-indazole]
8.92	6.51	c1cc(-c2ccc(Oc3ccc4cc(CN5CCOCC5)nn4c3)cc2)[nH]n1 [Example 14, 2-morpholin-4-ylmethyl-6-[4-(2H-pyrazol-3-yl)-phenoxy]-pyrazolo[1,5-a]pyridine]
9.43	6.68	CC(=O)NC1CCN(Cc2ccc3cc(Oc4ccc(-c5ccn[nH]5)cn4)ccc3c2)CC1 [Example 6, N-(1-{6-[5-(2H-Pyrazol-3-yl)-pyridin-2-yloxy]-naphthalen-2-ylmethyl}-piperidin-4-yl)-acetamide]
8.46	6.01	CC(=O)N1CCN(Cc2cnc3cc(Oc4ccc(-c5ccn[nH]5)cc4)ccc3n2)CC1 [Example 241, 1-(4-{6-[4-(2H-Pyrazol-3-yl)-phenoxy]-quinoxalin-2-ylmethyl}-piperazin-1-yl)-ethanone]
9.17	6.89	c1cc(-c2ccc(Oc3ccc4cc(CN5CCCC5)oc4c3)nc2)[nH]n1 [Example 127, 5-(2H-Pyrazol-3-yl)-2-(2-pyrrolidin-1-ylmethyl-benzofuran-6-yloxy)-pyridine]
8.96	6.72	O=C1CCC2(CCN(Cc3ccc4cc(Oc5ccc(-c6ccn[nH]6)cn5)ccc4n3)CC2)N1 [Example 30, 8-{6-[5-(2H-Pyrazol-3-yl)-pyridin-2-yloxy]-quinolin-2-ylmethyl}-1,8-diaza-spiro[4.5]decan-2-one]
10.05	7.01	CC[C@@H](C)N(C)Cc1nc2cc(Oc3ccc(-c4ccn[nH]4)cc3)ccc2[nH]1 [Example 80, ((R)-sec-Butyl)-methyl-{5-[4-(2H-pyrazol-3-yl)-phenoxy]-1H-benzoimidazol-2-ylmethyl}-amine]
10.19	6.92	c1cc(-c2ccc(Oc3ccc4[nH]c(CN5CCCCCC5)nc4c3)cc2)[nH]n1 [Example 163, 2-Azepan-1-ylmethyl-5-[4-(2H-pyrazol-3-yl)-phenoxy]-1H-benzoimidazole]
10.19	7.18	c1cc(-c2ccc(Oc3ccc4nc(CN5CCCC5)ccc4c3)cc2)[nH]n1 [Example 243, 6-[4-(2H-Pyrazol-3-yl)-phenoxy]-2-pyrrolidin-1-ylmethyl-quinoline]
9.70	6.82	CN(Cc1nc2cc(Oc3ccc(-c4ccn[nH]4)cc3)ccc2[nH]1)C1CC1 [Example 179, Cyclopropyl-methyl-{5-[4-(2H-pyrazol-3-yl)-phenoxy]-1H-benzoimidazol-2-ylmethyl}-amine]
8.96	6.60	O=C1OC[C@@H]2CN(Cc3ccc4cc(Oc5ccc(-c6ccn[nH]6)cn5)ccc4n3)CCN12 [Example 16, (S)-7-{6-[5-(2H-pyrazol-3-yl)-pyridin-2-yloxy]-quinolin-2-ylmethyl}-hexahydro-oxazolo[3,4-a]pyrazin-3-one]
9.41	6.70	O=C(CO)N1C[C@@H]2C[C@H]1CN2Cc1ccc2cc(Oc3ccc(-c4ccn[nH]4)cn3)ccc2n1 [Example 139, 2-Hydroxy-1-((1S,4S)-5-{6-[5-(2H-pyrazol-3-yl)-pyridin-2-yloxy]-quinolin-2-ylmethyl}-2,5-diaza-bicyclo[2.2.1]hept-2-yl)-ethanone]
10.00	7.17	CC[C@H](C)N(C)Cc1nc2cc(Oc3ccc(-c4ccn[nH]4)cc3)ccc2[nH]1 [Example 74, ((S)-sec-butyl)-methyl-{5-[4-(2H-pyrazol-3-yl)-phenoxy]-1H-benzoimidazol-2-ylmethyl}-amine]
8.89	6.24	CN(CC(N)=O)Cc1ccc2cc(Oc3ccc(-c4ccn[nH]4)cn3)ccc2n1 [Example 47, 2-(Methyl-{6-[5-(2H-pyrazol-3-yl)-pyridin-2-yloxy]-quinolin-2-ylmethyl}-amino)-acetamide]
9.35	6.89	CC(=O)N1CCN(CCn2ncc3cc(Oc4ccc(-c5ccn[nH]5)cc4)ccc32)CC1 [Example 90, 1-[4-(2-{5-[4-(2H-Pyrazol-3-yl)-phenoxy]-indazol-1-yl}-ethyl)-piperazin-1-yl]-ethanone]
9.60	6.92	CN(C)C(=O)CC1CCN(CC2Cc3ccc(Oc4ccc(-c5ccn[nH]5)cc4)cc3O2)CC1 (stereo not drawn) [Example 169, N,N-Dimethyl-2-(1-{6-[4-(2H-pyrazol-3-yl)-phenoxy]-2,3-dihydro-benzofuran-2-ylmethyl}-piperidin-4-yl)-acetamide]
9.12	6.55	C[C@@H]1CN(C(=O)CO)CCN1Cc1ccc2cc(Oc3ccc(-c4ccn[nH]4)cn3)ccc2n1 [Example 38, 2-Hydroxy-1-((R)-3-methyl-4-{6-[5-(2H-pyrazol-3-yl)-pyridin-2-yloxy]-quinolin-2-ylmethyl}-piperazin-1-yl)-ethanone]
9.44	6.92	CN(Cc1nc2cc(Oc3ccc(-c4ccn[nH]4)cc3)ccc2[nH]1)CC1COCCO1 (stereo not drawn) [Example 87, [1,4]Dioxan-2-ylmethyl-methyl-{5-[4-(2H-pyrazol-3-yl)-phenoxy]-1H-benzoimidazol-2-ylmethyl}-amine]
9.13	6.77	CC(=O)NCC1CCN(CC2Cc3ccc(Oc4ccc(-c5ccn[nH]5)cn4)cc3O2)CC1 (stereo not drawn) [Example 128, N-(1-{6-[5-(2H-Pyrazol-3-yl)-pyridin-2-yloxy]-2,3-dihydro-benzofuran-2-ylmethyl}-piperidin-4-ylmethyl)-acetamide]
9.89	6.82	CC[C@@H](C)NCc1nc2cc(Oc3ccc(-c4ccn[nH]4)cc3)ccc2[nH]1 [Example 180, ((R)-sec-Butyl)-{5-[4-(2H-pyrazol-3-yl)-phenoxy]-1H-benzoimidazol-2-ylmethyl}-amine]
8.68	6.13	c1cc(-c2ccc(Oc3ccc4nc(CN5CCCC6(COC6)C5)ccc4c3)nc2)[nH]n1 [Example 48, 2-(2-Oxa-6-aza-spiro[3.5]non-6-ylmethyl)-6-[5-(2H-pyrazol-3-yl)-pyridin-2-yloxy]-quinoline]
9.92	7.09	c1cc(-c2ccc(Oc3ccc4nn(CCN5CCCC5)cc4c3)cc2)[nH]n1 [Example 217, 5-[4-(2H-Pyrazol-3-yl)-phenoxy]-2-(2-pyrrolidin-1-yl-ethyl)-2H-indazole]
8.85	6.80	c1cc(-c2ccc(Oc3ccc4nc(OCCN5CCOCC5)sc4c3)cc2)n[nH]1 [Example 232, 2-(2-Morpholin-4-yl-ethoxy)-6-[4-(1H-pyrazol-3-yl)-phenoxy]-benzothiazole]
9.57	6.72	CN(Cc1nc2cc(Oc3ccc(-c4ccn[nH]4)cc3)ccc2[nH]1)CC1CCOC1 (stereo not drawn) [Example 104, Methyl-{5-[4-(2H-pyrazol-3-yl)-phenoxy]-1H-benzoimidazol-2-ylmethyl}-(tetrahydro-furan-3-ylmethyl)-amine]
9.92	7.18	c1cc(-c2ccc(Oc3ccc4[nH]c(CN5CCCC5)nc4c3)cc2)[nH]n1 [Example 52, 5-[4-(2H-Pyrazol-3-yl)-phenoxy]-2-pyrrolidin-1-ylmethyl-1H-benzoimidazole]
9.51	6.82	O=C(C1CCN(CC2Cc3ccc(Oc4ccc(-c5ccn[nH]5)cc4)cc3O2)CC1)N1CCOCC1 (stereo not drawn) [Example 187, Morpholin-4-yl-(1-{6-[4-(2H-pyrazol-3-yl)-phenoxy]-2,3-dihydro-benzofuran-2-ylmethyl}-piperidin-4-yl)-methanone]
